Measured values taken from ChEMBL document CHEMBL3045108, “Advanced QSRR models of toxicological screening of basic drugs in whole blood by UPLC-TOFMS” (Med Chem Res, 2012).

test system: Blood; experiment: Drug level in Homo sapiens (human) whole blood assessed as retention time by UPLC-TOF-MS analysis

CCOC(=O)C1(c2ccccc2)CCN(C)CC1 [MEPERIDINE] and CCC(=O)C1(c2cccc(O)c2)CCN(C)CC1 [KETOBEMIDONE] are within 1.5-fold of each other in Retention_time: 4.68 min for the first, 3.22 min for the second.

C#CCN(C)[C@H](C)Cc1ccccc1 [SELEGILINE] and CC(N)Cc1ccccc1 (stereo not drawn) [AMPHETAMINE] are within 1.5-fold of each other in Retention_time: 3.55 min for the first, 2.6 min for the second.

CCOC(=O)[C@H](CCc1ccccc1)N[C@@H](C)C(=O)N1CCC[C@H]1C(=O)O and CC(CCc1ccccc1)NCC(O)c1ccc(O)c(C(N)=O)c1 (stereo not drawn) [LABETALOL] are within 1.5-fold of each other in Retention_time: 5.23 min for the first, 4.95 min for the second.

O=C1CC2(CCCC2)CC(=O)N1CCCCN1CCN(c2ncccn2)CC1 [BUSPIRONE] and O=C1CCc2ccc(OCCCCN3CCN(c4cccc(Cl)c4Cl)CC3)cc2N1 [ARIPIPRAZOLE] are within 1.5-fold of each other in Retention_time: 5.14 min for the first, 5.9 min for the second.

CCOC(=O)C1=C(COCCN)NC(C)=C(C(=O)OC)C1c1ccccc1Cl (stereo not drawn) [AMLODIPINE] and CCOC(=O)C1=C(C)NC(C)=C(C(=O)OC)C1c1cccc(Cl)c1Cl (stereo not drawn) [FELODIPINE] are within 1.5-fold of each other in Retention_time: 5.94 min for the first, 7.44 min for the second.

First: COc1ccc(N2CCNCC2)cc1
Second: c1cc2c(c(N3CCNCC3)c1)OCCO2 [ELTOPRAZINE]
The Retention_time of the first is 1.9-fold lower: 2.59 min for the first, 4.9 min for the second.

COc1cc(CC(C)N)c(OC)cc1C (stereo not drawn) [DOM] and COc1cc(CCN)c(OC)cc1I are within 1.5-fold of each other in Retention_time: 4.67 min for the first, 4.92 min for the second.

OCCOCCN1CCN(C(c2ccccc2)c2ccc(Cl)cc2)CC1 (stereo not drawn) [HYDROXYZINE] and CN1CCN(C(c2ccccc2)c2ccccc2)CC1 [CYCLIZINE] are within 1.5-fold of each other in Retention_time: 5.91 min for the first, 5.52 min for the second.

Going from COc1ccc2c(c1OC)C(=O)O[C@@H]2[C@H]1c2c(cc3c(c2OC)OCO3)CCN1C [NOSCAPINE] to COc1ccc2c3c1O[C@H]1C(=O)CC[C@@]4(O)[C@@H](C2)N(C)CC[C@]314 [OXYCODONE], the Retention_time falls from 4.99 min to 2.67 min (1.9-fold).

First: CC(C)NCC(O)c1ccc(NS(C)(=O)=O)cc1 (stereo not drawn) [SOTALOL]
Second: CC(C)NCC(O)COc1ccc(COCCOC(C)C)cc1 (stereo not drawn) [BISOPROLOL]
The Retention_time of the first is 2.5-fold lower: 2.02 min for the first, 5.06 min for the second.

OC(CCN1CCCCC1)(c1ccccc1)C1CC2C=CC1C2 (stereo not drawn) [BIPERIDEN] and OC(CCN1CCCC1)(c1ccccc1)C1CCCCC1 (stereo not drawn) [PROCYCLIDINE] are the same in Retention_time: 5.78 min for the first, 5.78 min for the second.

COc1ccc2c3c1O[C@H]1C(=O)CC[C@H]4[C@@H](C2)N(C)CC[C@]314 [HYDROCODONE] and COc1ccc2c3c1O[C@H]1[C@@H](O)C=C[C@H]4[C@@H](C2)N(C)CC[C@@]341 [CODEINE] are within 1.5-fold of each other in Retention_time: 2.96 min for the first, 2.5 min for the second.

CN(C)CCCN1c2ccccc2CCc2ccccc21 [IMIPRAMINE] and CN(C)CCCN1c2ccccc2Sc2ccc(Cl)cc21 [CHLORPROMAZINE] are within 1.5-fold of each other in Retention_time: 5.81 min for the first, 6.12 min for the second.

Cc1nnc2n1-c1sc(Br)cc1C(c1ccccc1Cl)=NC2 [BROTIZOLAM] and Cc1nnc2n1-c1ccc(Cl)cc1C(c1ccccc1Cl)=NC2 [TRIAZOLAM] are within 1.5-fold of each other in Retention_time: 6.27 min for the first, 6.15 min for the second.

CC[C@H]1C[C@@H]2C[C@H]3c4[nH]c5ccc(OC)cc5c4CCN(C2)[C@@H]13 [IBOGAINE] and COc1ccc2c(c1)[C@]13CCCC[C@@H]1[C@H](C2)N(C)CC3 [DEXTROMETHORPHAN] are within 1.5-fold of each other in Retention_time: 4.94 min for the first, 5.38 min for the second.

Compared with CN1CCC[C@@H]1Cc1c[nH]c2ccc(CCS(=O)(=O)c3ccccc3)cc12, CN(C)CCc1c[nH]c2ccc(C[C@H]3COC(=O)N3)cc12 [ZOLMITRIPTAN] is 1.9-fold lower in Retention_time: 5.21 min for the first, 2.7 min for the second.

COc1ccc(CC(C)N)cc1 (stereo not drawn) [PARA-METHOXYAMPHETAMINE] and CC(N)Cc1ccc2c(c1)OCO2 (stereo not drawn) [TENAMFETAMINE] are within 1.5-fold of each other in Retention_time: 2.91 min for the first, 2.7 min for the second.

CCN(C(C)=O)c1cccc(-c2ccnc3c(C#N)cnn23)c1 [ZALEPLON] and Clc1ccc2c(c1)C(c1ccccc1)=NCc1nncn1-2 [ESTAZOLAM] are within 1.5-fold of each other in Retention_time: 5.68 min for the first, 5.95 min for the second.

CN1C(=O)C(O)N=C(c2ccccc2Cl)c2cc(Cl)ccc21 (stereo not drawn) [LORMETAZEPAM] and O=C1Nc2ccc(Cl)cc2C(c2ccccc2Cl)=NC1O (stereo not drawn) [LORAZEPAM] are within 1.5-fold of each other in Retention_time: 6.41 min for the first, 6.02 min for the second.

Cc1cccc(C)c1NC(=O)C1CCCCN1C (stereo not drawn) [MEPIVACAINE] and CN1CC[C@@]23CCCC[C@@H]2[C@@H]1Cc1ccc(O)cc13 [DEXTRORPHAN] are within 1.5-fold of each other in Retention_time: 3.46 min for the first, 3.82 min for the second.

OCc1cc(C(O)CNCCCCCCOCCCCc2ccccc2)ccc1O (stereo not drawn) [SALMETEROL] and CNCCC(Oc1ccc(C(F)(F)F)cc1)c1ccccc1 (stereo not drawn) [FLUOXETINE] are within 1.5-fold of each other in Retention_time: 6.14 min for the first, 6.08 min for the second.

COC(=O)C1=C(C)NC(C)=C(C(=O)OC(C)C)C1c1cccc2nonc12 (stereo not drawn) [ISRADIPINE] and COC(=O)C1=C(C)NC(C)=C(C(=O)OC)C1c1ccccc1[N+](=O)[O-] [NIFEDIPINE] are within 1.5-fold of each other in Retention_time: 7 min for the first, 6.4 min for the second.

CCOc1ccccc1OC(c1ccccc1)C1CNCCO1 (stereo not drawn) [REBOXETINE] and Cc1ccccc1C(OCCN(C)C)c1ccccc1 (stereo not drawn) [ORPHENADRINE] are within 1.5-fold of each other in Retention_time: 5.6 min for the first, 5.75 min for the second.

CNC1(c2ccccc2Cl)CCCCC1=O (stereo not drawn) [KETAMINE] and c1ccc(C2(N3CCCCC3)CCCCC2)cc1 [PHENCYCLIDINE] are within 1.5-fold of each other in Retention_time: 3.57 min for the first, 5.23 min for the second.

CC(C)(C)NCC(O)c1cc(O)cc(O)c1 (stereo not drawn) [TERBUTALINE] and CN[C@@H](C)[C@@H](O)c1ccccc1 [PSEUDOEPHEDRINE] are within 1.5-fold of each other in Retention_time: 1.93 min for the first, 2.28 min for the second.

First: CN1[C@H]2CC[C@@H]1[C@@H](C(=O)O)[C@@H](OC(=O)c1ccccc1)C2 [THERACYS]
Second: C[C@H](N)C(=O)c1ccccc1 [CATHINONE]
The Retention_time of the first is 1.7-fold higher: 3.48 min for the first, 2.09 min for the second.

CCN(CC)CCN1C(=O)CN=C(c2ccccc2F)c2cc(Cl)ccc21 [FLURAZEPAM] and Cc1ncc2n1-c1ccc(Cl)cc1C(c1ccccc1F)=NC2 [MIDAZOLAM] are within 1.5-fold of each other in Retention_time: 5.53 min for the first, 5.45 min for the second.

COCCOC(=O)C1=C(C)NC(C)=C(C(=O)OC(C)C)C1c1cccc([N+](=O)[O-])c1 (stereo not drawn) [NIMODIPINE] and COC(=O)C1=C(C)NC(C)=C(C(=O)OC(C)(C)CN(C)CCC(c2ccccc2)c2ccccc2)C1c1cccc([N+](=O)[O-])c1 (stereo not drawn) [LERCANIDIPINE] are within 1.5-fold of each other in Retention_time: 7.14 min for the first, 6.8 min for the second.

Compared with O=C1CN=C(c2ccccc2Cl)c2cc(Br)ccc2N1 [PHENAZEPAM], Nc1ccc2c(c1)C(c1ccccc1Cl)=NCC(=O)N2 [7-AMINOCLONAZEPAM] is 1.9-fold lower in Retention_time: 6.45 min for the first, 3.39 min for the second.

CCC(=O)C(CC(C)N(C)C)(c1ccccc1)c1ccccc1 (stereo not drawn) [METHADONE] and CCC(=O)O[C@](Cc1ccccc1)(c1ccccc1)[C@H](C)CN(C)C [PROPOXYPHENE] are within 1.5-fold of each other in Retention_time: 6.03 min for the first, 5.98 min for the second.

O=C(CCCN1CCC(O)(c2ccc(Cl)cc2)CC1)c1ccc(F)cc1 [HALOPERIDOL] and CN(C)C(=O)C(CCN1CCC(O)(c2ccc(Cl)cc2)CC1)(c1ccccc1)c1ccccc1 [LOPERAMIDE] are within 1.5-fold of each other in Retention_time: 5.57 min for the first, 6.37 min for the second.

Compared with C[C@H](N)[C@@H](O)c1ccccc1 [CATHINE], CC(C)(N)Cc1ccccc1 [PHENTERMINE] is 1.5-fold higher in Retention_time: 2.05 min for the first, 3.08 min for the second.

Going from CN1CC[C@]23c4c5ccc(O)c4O[C@H]2C(=O)CC[C@@]3(O)[C@H]1C5 [OXYMORPHONE] to CN1CCN2c3ccccc3Cc3ccccc3C2C1 (stereo not drawn) [MIANSERIN], the Retention_time rises from 1.78 min to 5.48 min (3.1-fold).

CC1Cc2ccccc2N1NC(=O)c1ccc(Cl)c(S(N)(=O)=O)c1 (stereo not drawn) [INDAPAMIDE] and CN1CCN=C(c2ccccc2)c2cc(Cl)ccc21 [MEDAZEPAM] are within 1.5-fold of each other in Retention_time: 5.79 min for the first, 5.45 min for the second.

COc1ccc2c(c1)N(C[C@H](C)CN(C)C)c1ccccc1S2 [LEVOMEPROMAZINE] and COc1ccc([C@@H]2Sc3ccccc3N(CCN(C)C)C(=O)[C@@H]2OC(C)=O)cc1 [DILTIAZEM] are within 1.5-fold of each other in Retention_time: 5.98 min for the first, 5.63 min for the second.

Cc1nnc2n1-c1ccc(Cl)cc1C(c1ccccc1)=NC2 [ALPRAZOLAM] and O=C1CN=C(c2ccccc2)c2cc([N+](=O)[O-])ccc2N1 [NITRAZEPAM] are within 1.5-fold of each other in Retention_time: 6.09 min for the first, 5.8 min for the second.

Going from CCCc1nc(C)c2c(=O)[nH]c(-c3cc(S(=O)(=O)N4CCN(CC)CC4)ccc3OCC)nn12 to CCN1CCCC1CNC(=O)c1cc(S(N)(=O)=O)ccc1OC (stereo not drawn) [SULPIRIDE], the Retention_time falls from 5.17 min to 2.21 min (2.3-fold).

CN1CCN(C2=Nc3cc(Cl)ccc3Nc3ccccc32)CC1 [CLOZAPINE] and O=C1C[N+]([O-])=C(c2ccccc2)c2cc(Cl)ccc2N1 [DEMOXEPAM] are within 1.5-fold of each other in Retention_time: 5.1 min for the first, 5.62 min for the second.

COCCCC/C(=N\OCCN)c1ccc(C(F)(F)F)cc1 [FLUVOXAMINE] and CCOC(=O)c1ccc(N)cc1 [BENZOCAINE] are within 1.5-fold of each other in Retention_time: 5.91 min for the first, 5.15 min for the second.

Cc1ccc(-c2nc3ccc(C)cn3c2CC(=O)N(C)C)cc1 [ZOLPIDEM] and Cc1ccccc1-n1c(C)nc2ccccc2c1=O [METHAQUALONE] are within 1.5-fold of each other in Retention_time: 4.78 min for the first, 6.02 min for the second.

Compared with Clc1cccc(Cl)c1N=C1NCCN1 [CLONIDINE], Fc1ccc([C@@H]2CCNC[C@H]2COc2ccc3c(c2)OCO3)cc1 [PAROXETINE] is 2.3-fold higher in Retention_time: 2.44 min for the first, 5.66 min for the second.

CCN(CC)CCNC(=O)c1cc(Cl)c(N)cc1OC [METOCLOPRAMIDE] and COc1cc(CCN)cc(OC)c1OC [MESCALINE] are within 1.5-fold of each other in Retention_time: 3.64 min for the first, 2.77 min for the second.

CC(C=C(c1ccccc1)c1ccccc1)N(C)C (stereo not drawn) and C[C@@H](Cc1ccccc1)N(C)Cc1ccccc1 [BENZPHETAMINE] are within 1.5-fold of each other in Retention_time: 5.72 min for the first, 5.24 min for the second.

CCOC(=O)C1(c2ccccc2)CCN(CCC(C#N)(c2ccccc2)c2ccccc2)CC1 [DIPHENOXYLATE] and CNCCCC1(c2ccc(F)cc2)OCc2cc(C#N)ccc21 (stereo not drawn) are within 1.5-fold of each other in Retention_time: 6.56 min for the first, 5.47 min for the second.

COc1ccc(CN(CCN(C)C)c2ccccn2)cc1 [PYRILAMINE] and CN(C)CC/C=C1/c2ccccc2Sc2ccc(Cl)cc21 [CHLORPROTHIXENE] are within 1.5-fold of each other in Retention_time: 4.57 min for the first, 6.18 min for the second.

First: CCCCc1nc(Cl)c(CO)n1Cc1ccc(-c2ccccc2-c2nn[nH]n2)cc1 [LOSARTAN]
Second: CCN(CC)C(C)C(=O)c1ccccc1 (stereo not drawn) [DIETHYLPROPION]
The Retention_time of the first is 2-fold higher: 6.09 min for the first, 3.05 min for the second.

COc1ccc(C(CN(C)C)C2(O)CCCCC2)cc1 (stereo not drawn) [VENLAFAXINE] showed a Retention_time of 5.06 min.
